Converted amounts (≈) assume the structure as drawn. “And” between values parts separate entries of the source, which are not always exact repeats. Equal values may be shown once.
Columns and labels:
[1] = system: Rattus norvegicus; conditions: for LC50 / LD50: acute
[2] = system: Rattus norvegicus; assay: LD40; higher = less toxic; conditions: acute; oral; gavage; Wistar
[3] = system: Oryctolagus sp.; assay: LD0; higher = less toxic; conditions: acute; dermal; occlusive; New Zealand
[4] = system: Rattus norvegicus; assay: LC0; higher = less toxic; conditions: acute; Inhalation; Wistar
[5] = system: Rattus norvegicus; conditions: subchronic; duration: 63 days; oral; gavage; M; Sprague-Dawley; Clinical Observation: Piloerection SalivationMatted fur + Body Weight Changes: decrease
[6] = system: Bacteria; conditions: In vitro / microbiological growth inhibition; Growth inhibition
[7] = system: Rattus norvegicus
[8] = system: Mus musculus; conditions: chronic; duration: 26 weeks; inhalation; M/F; methemoglobin increase, spleen toxicity
[9] = system: Cavia porcellus; conditions: chronic; duration: 26 weeks; inhalation; M/F; Guinea Pig; methemoglobin increase, spleen toxicity
[10] = system: Guinea Pig, Mouse, Rat; conditions: subchronic; inhalation; intermittent; Spleen: Pathology
[11] = system: Rattus norvegicus; conditions: oral, M/F
[12] = system: Oryctolagus sp.
[13] = system: Mus musculus; conditions: for LC50 / LD50: acute
[14] = system: Cavia porcellus; conditions: Guinea Pig
[15] = system: Mus musculus; assay: LC100; higher = less toxic; conditions: acute; inhalation
[16] = system: Mus musculus; conditions: chronic; duration: 2 years; oral; diet; M/F; Tif MAG; Uterine pathology
[17] = system: Monkey; conditions: chronic; oral; F; Cyanomolgus; Altered serum hormones & menstrual cyclicity
[18] = system: Mammals; conditions: acute; Inhalation
[19] = system: Rattus norvegicus; assay: LD100; higher = less toxic; conditions: acute
[20] = system: Cavia porcellus; assay: LD100; higher = less toxic; conditions: acute; oral; Guinea Pig
[21] = system: Mammals; assay: LD100; higher = less toxic; conditions: acute; Oral
[22] = system: Mus musculus; assay: LD10; higher = less toxic; conditions: acute; oral; BALB/cAnCr
[23] = system: Homo sapiens; conditions: duration: 10 days, oral, F, Withdrawal bleeding
[24] = system: Rattus norvegicus; conditions: uterotrophic, Active
[25] = system: Oryctolagus sp.; conditions: uterotrophic; injection; subcutaneous; Active
[26] = system: Mus musculus; conditions: uterotrophic; duration: 3 days; injection; subcutaneous; Active
[27] = short-term, duration: 4 weeks, inhalation, M, Sprague-Dawley
[28] = short-term, duration: 4 weeks, inhalation, Sprague-Dawley
[29] = subchronic, duration: 90 days, oral, gavage, Albino- not specified
[30] = subchronic, duration: 7 weeks, inhalation
[31] = subchronic, duration: 35 days, inhalation, ICR
[32] = subchronic, duration: 35 days, inhalation
[33] = subchronic, oral, M/F, reduced body weight
[34] = developmental, duration: 10 days, oral, gavage, Crj:CD
[35] = developmental, duration: 13 days, oral, gavage, New Zealand
[36] = reproduction developmental, duration: 13 days, oral, gavage, F, New Zealand

For `CC(C)(C)C(=O)CCc1ccc(Cl)cc1` [1-(4-Chlorophenyl)-4,4-dimethyl-pentan-3-one], which LC50 ([1]; Inhalation, Wistar) is on record?
Its LC50 is greater than 2940 mg/m3.

What about the LD50 ([1]; dermal, occlusive, Wistar) of the same molecule?
Its LD50 is greater than 5000 mg/kg.

And the LD50 ([1]; oral, gavage, Wistar)?
Its LD50 is 4750 mg/kg and > 5000 mg/kg and 4820 mg/kg.

And the LD40 [2]?
The LD40 was 3140 mg/kg.

With `Nc1ccccc1[N+](=O)[O-]` [2-Nitrobenzenamine] as the molecule, how does the NOAEL ([1]; developmental, duration: 6 days, oral, gavage, Sprague-Dawley) read?
Its NOAEL is 600 mg/kg-day.

And the NOAEL ([1]; reproduction developmental, duration: 6 days, oral, gavage, F, Sprague-Dawley)?
Its NOAEL is 100 mg/kg-day.

And the LOAEL [1, 27]?
Its LOAEL is 93 mg/m3.

What about the NOAEL [1, 27] of the same molecule?
The NOAEL was 9.8 mg/m3.

What about the LOAEL [1, 28] of the same molecule?
The LOAEL was 73 mg/m3.

What about the NOAEL [1, 28] of the same molecule?
Its NOAEL is 30 mg/m3.

What about the NOAEL ([1]; short-term, duration: 14 days, oral, gavage, Sprague-Dawley) of the same molecule?
The NOAEL was no less than 100 mg/kg-day.

What about the LD0 [3] of the same molecule?
The LD0 was greater than 7940 mg/kg.

What about the LC0 [4] of the same molecule?
The LC0 was greater than 2530 mg/m3.

What about the NOAEL [5] of the same molecule?
Its NOAEL is 50 mg/kg-day.

How did the NOAEC [6] turn out when `CC1(C)S[C@@H]2[C@H](NC(=O)[C@H](N)c3ccc(O)cc3)C(=O)N2[C@H]1C(=O)O` [Amoxicillin] was run?
Its NOAEC is 0.1 µg/mL.

For `Nc1ccccc1` [Aniline], which NOAEL ([1]; short-term, duration: 2 weeks, inhalation) is on record?
The NOAEL was 38.1 mg/m3.

And the NOAEL ([7]; chronic, duration: 26 weeks, inhalation, M/F, methemoglobin increase, spleen toxicity)?
The NOAEL was 19 mg/m3.

And the LOAEL ([7]; short-term, inhalation, M, Mild spleen toxicity 2-Week)?
The LOAEL was 64.7 mg/m3.

And the NOAEL [8]?
Its NOAEL is 19 mg/m3.

And the NOAEL [9]?
Its NOAEL is 19 mg/m3.

And the NOAEL [10]?
Its NOAEL is 19 mg/m3.

What about the LOAEL ([11]; chronic, duration: 104 weeks, diet, Crl:CD1, Immune, Hematologic) of the same molecule?
Its LOAEL is 7 mg/kg-day.

Which results are given for `CCOCC` [Diethyl ether]?
LC50 ([1]; oral, Sprague-Dawley): 1710 mg/kg; NOAEL ([1]; subchronic, duration: 7 weeks, inhalation, Wistar): 6.2 mg/L; NOAEL ([1]; subchronic, duration: 35 days, inhalation, Sprague-Dawley): 30 mg/L; LOAEL [1, 29]: 2000 mg/kg-day; NOAEL [1, 29]: 500 mg/kg-day; NOAEL [12, 30]: 6.2 mg/L; LC50 ([13]; inhalation): 130 µg/mL (≈ 1750 µM); LC50 ([13]; inhalation, C3H/HeCr): 98200 mg/m3 and 94900 mg/m3; LC50 ([13]; inhalation, C57BL/6): 199000 mg/m3 and 182000 mg/m3; LD50 ([13]; injection, Intraperitoneal): 2420 mg/kg; LD50 ([13]; injection, intravenous): 996 mg/kg; LOAEL [13, 31]: 30 mg/L; NOAEL [13, 31]: 3 mg/L; NOAEL [14, 30]: 6.2 mg/L; LOAEL [14, 32]: 30 mg/L; NOAEL [14, 32]: 3 mg/L; LC100 [15]: 128 mg/L; LOAEL [7, 33]: 2000 mg/kg-day; NOAEL [7, 33]: 500 mg/kg-day; NOAEL ([11]; subchronic, duration: 90 days, gavage, Sprague-Dawley, Whole Body Effects): 500 mg/kg-day

How did the NOEL [16] turn out when `O=C(NC(=O)c1c(F)cccc1F)Nc1ccc(Cl)c(Oc2ncc(C(F)(F)F)cc2Cl)c1` [Fluazuron] was run?
Its NOEL is 4.3 mg/kg-day.

With `C=C1C[C@H]2[C@@H]3C=C(C)C4=CC(=O)CC[C@]4(C)[C@H]3CC[C@]2(C)[C@@]1(OC(C)=O)C(C)=O` [Melengestrol acetate] as the molecule, how does the LOEL [17] read?
Its LOEL is 0.005 mg/kg-day.

`C1COCCN1` [Morpholine] was tested. Which LD50 ([1]; inhalation) did it give?
Its LD50 is ≥ 7.8 mg/L and ≤ 8.2 mg/L.

What about the LD50 ([13]; oral) of the same molecule?
The LD50 was 525 mg/kg.

And the LD50 ([14]; acute, oral)?
The LD50 was 900 mg/kg.

What about the LC50 [18] of the same molecule?
The LC50 was 12 µg/mL (≈ 138 µM).

And the LD100 ([19]; injection, Intraperitoneal)?
Its LD100 is 400 mg/kg.

And the LD100 ([19]; oral)?
Its LD100 is 100 mg/kg.

And the LD100 [20]?
The LD100 was 100 mg/kg.

And the LD100 [21]?
Its LD100 is 1220 mg/kg.

With `CNC=O` [N-Methylformamide] as the molecule, how does the LD10 [22] read?
The LD10 was 1800 mg/kg.

What about the LD50 ([1]; oral) of the same molecule?
Its LD50 is 4000 mg/kg.

And the LOAEL [1, 34]?
Its LOAEL is 75 mg/kg-day.

And the NOAEL [1, 34]?
Its NOAEL is 10 mg/kg-day.

And the NOAEL ([1]; reproduction developmental, duration: 10 days, inhalation, F, Crl: CD BR)?
Its NOAEL is 36.2 mg/m3.

And the NOAEL ([1]; short-term, duration: 2 weeks, inhalation, M, Crl:CD(SD))?
Its NOAEL is 0.12 mg/L.

What about the LOAEL [12, 35] of the same molecule?
The LOAEL was 50 mg/kg-day.

What about the NOAEL [12, 35] of the same molecule?
Its NOAEL is 10 mg/kg-day.

And the LOAEL [12, 36]?
Its LOAEL is 50 mg/kg-day.

What about the NOAEL [12, 36] of the same molecule?
Its NOAEL is 10 mg/kg-day.

What about the LD50 ([13]; oral, BALB/cAnCr) of the same molecule?
The LD50 was 2600 mg/kg.

With `CC(=O)[C@H]1CC[C@H]2[C@@H]3CCC4=CC(=O)CC[C@]4(C)[C@H]3CC[C@]12C` [Progesterone] as the molecule, how does the LOEL ([23]; Clinical) read?
The LOEL was 3.3 mg/kg-day.

What about the LOEL ([23]; clinical) of the same molecule?
The LOEL was 3.3 mg/kg-day.

What about the LEL ([24]; duration: 2 days, oral) of the same molecule?
Its LEL is 0.5 mg/kg-day.

And the LEL ([24]; duration: 4 days, injection, intraperitoneal)?
Its LEL is 50 mg/kg-day.

What about the LEL ([24]; duration: 14 days, oral) of the same molecule?
Its LEL is 10 mg.

And the LEL [25]?
The LEL was 1 mg/day.

And the LEL [26]?
The LEL was 0.087 mg.

What about the “LEL (gamma)” value [26] of the same molecule?
The value was 30.
